According to patent US20170055529A1, “BROAD SPECTRUM WEED CONTROL IN FLOODED RICE BY IN-WATER APPLICATION OF AUXIN HERBICIDES” (priority 2015, published 2017):

Columns and labels:
Type in all cases: in vivo
[1] = tested on: ORYSP = Oryza sativa (transplanted paddy rice); assay: Greenhouse in-water application (large pots), crop injury
Description: Weed seeds or nutlets of the desired test plant species were planted in puddled soil (mud) prepared by mixing shredded topsoil and deionized (DI) water in a 1:1 ratio in a standard cement mixer. […] Osmocote® (17:6:10 N:P:K; 0.5 teaspoon) was added to the bottom of a container. The container is a high-density polyethylene (HDPE) round container (4.163 L (1.1 gallon), 15 cm high×20.55 cm diameter; for treatment purposes, the surface area is calculated as 331 cm^2 with 1 hectare equivalent to 10^8 cm^2). The mud mixture (2,750 mL) was added to the container filling it half full. Stakes were placed horizontally in each container to create separate areas for which to plant each different plant species. Water was added on a regular basis to maintain the paddy flood, and supplemental lighting was provided with overhead metal halide 1000-Watt lamps as necessary.
Once the plants had reached the proper size (the growth stage of the various species ranged from 2 to 4 leaves), the containers were flooded with city water to a depth of 3 cm submerging the plants 80-100%. The outside of each container was measured and marked at a 3-cm line with a black permanent marker to eliminate water level variability during the trial period. Water was added daily to maintain this water depth. Triclopyr triethylammonium (as Garlon® 3 A, 360 g ae/L); triclopyr butoxyethyl ester (as Garlon® 4, 480 g ae/L); fluroxypyr methylheptyl ester (meptyl or MHE, as Starane® Ultra, 333 g ae/L); fluroxypyr acid (850 grams acid equivalent per kilogram (g ae/kg)); 2,4-dichlorophenoxyacetic acid dimethylammonium (2,4-D DMA, as Weedar® 64 EC, 456 g ae/L); 2,4-dichlorophenoxyacetic acid 2-ethylhexyl ester (2,4-D 2-EHE, as Agri Star®, 456 g ae/L); clopyralid olamine (as Stinger®, 360 g ae/L); and penoxsulam (as Grasp® SC, 240 g ai/L) were used. Each herbicide treatment for each pot was mixed in water (80 mL) and applied directly into the paddy water at rates adjusted to the surface area. The dry formulations were pre-weighed based on the rate of the active ingredient to be applied on a per unit area basis, placed in 30 mL vials, and capped. Granules were spread onto the top of the water in each pot and dispersed throughout the water. Treatments were replicated 3 times.
The treated plants and control plants were placed in a greenhouse as described above and water was added as needed to maintain a flood depth of 3 cm. […]

[2] = tested on: ECHCG = Echinochloa crus-galli (barnyardgrass); assay: Greenhouse in-water herbicidal activity (small pots)
From the text: Weed seeds of the desired test plant species were planted in puddled soil (mud) prepared by mixing a non-sterilized mineral soil (approximately 50 percent silt, 26 percent clay, and 24 percent sand, with a pH of about 7.6 and an organic matter content of about 2.9 percent) and water at a 1:1 volumetric ratio. The prepared mud was dispensed in 365 milliliter (mL) aliquots into 16-ounce (oz.) non-perforated plastic pots with a surface area of 86.59 square centimeters (cm^2) leaving a headspace of 3 centimeters (cm) in each pot. Mud was allowed to dry overnight prior to planting or transplanting. Rice seeds were planted in Sun Gro® MetroMix® 360 planting mixture, which typically has a pH of 6.0 to 6.8 and an organic matter content of about 30 percent, in plastic plug trays. Seedlings at the second or third leaf stage of growth were transplanted into 840 mL of mud contained in 32-oz. non-perforated plastic pots with a surface area of 86.59 cm^2 four days prior to herbicide application. The paddy was created by filling the headspace of the pots with 2.5 to 3 cm of water. When required to ensure good germination and healthy plants, a fungicide treatment and/or other chemical or physical treatment was applied. The plants were grown for 4-22 days (d) in a greenhouse with an approximate 14-hour (h) photoperiod which was maintained at about 29° C. during the day and 26° C. during the night. Nutrients were added as Osmocote® (19:6:12, Nitrogen:Phosphorus:Potassium (N:P:K)+minor nutrients) at 2 g per 16 oz. pot and 4 g per 32 oz. pot. Water was added on a regular basis to maintain the paddy flood, and supplemental lighting was provided with overhead metal halide 1000-Watt lamps as necessary. The plants were used for testing when they reached the second or third true leaf stage.
Triclopyr triethylammonium (as Grandstand® R, 359.5 grams acid equivalent per liter (g ae/L)); fluroxypyr methylheptyl ester (meptyl or MHE, as Starane™, 179.8 g ae/L); 2,4-dichlorophenoxyacetic acid dimethylammonium (2,4-D DMA, as Weedar® 64, 455.4 g ae/L); and penoxsulam (as Grasp® SC, 239.7 grams active ingredient per liter (g ai/L) were used. Measured amounts of formulated compounds were placed in individual 120 mL glass vials and were dissolved in 40 mL of an aqueous mixture containing 1.25% volume per volume (v/v) Agri-Dex® crop oil concentrate. Generally, multiple concentrations were tested utilizing the same stock solution. Applications were made by injecting an appropriate amount of the application solution into the aqueous layer of the paddy. Control plants were treated in the same manner with the solvent blank.
The treated plants and control plants were placed in a greenhouse as described above and water was added as needed to maintain a paddy flood. After approximately 3 weeks the condition of the test plants, compared with that of the untreated plants, was determined visually and scored on a scale of 0 to 100 percent where 0 corresponds to no injury or growth reduction and 100 corresponds to complete kill.

[3] = tested on: ORYSP = Oryza sativa Japonica (transplanted paddy rice); assay: Field trial in-water application, crop tolerance
Description: Field trials were conducted in rice using standard herbicide small plot research methodology. Plot size was 2 square meters (m^2) using 1.6 meter (m) diameter rings placed into the rice paddy soil with capability for flooding to maintain good rice cultural practices and rice growing conditions. There were 3 replicates per treatment. Rice was Japonica type that was hand-transplanted into the saturated soil in the rings as per normal cultural practices. The transplanted rice crop was grown using normal cultural practices for fertilization, watering, flooding and maintenance to ensure good growth of the crop and the weeds under transplanted rice conditions in Taiwan.
Treatments were applied by mixing the treatments with deionized water just prior to water-injection application by hand to multiple sides in the ring plots. For each 2 m^2 plot, 50 mL deionized water was mixed with the appropriate formulated product amounts to treat 2 m^2 to achieve the desired application rates based on unit area of application (hectare). Ring plot water depth was kept at 3 to 7 cm deep before and after water-injection application.
The rice and weeds were evaluated at 28 days after application (DAA). Triclopyr triethylammonium (as Garlon® 3 A, 360 g ae/L); fluroxypyr methylheptyl ester (meptyl or MHE, as Starane® Ultra, 333 g ae/L); 2,4-dichlorophenoxyacetic acid dimethylammonium (2,4-D AMINE, 400 g ae/L SL); penoxsulam (as Grasp® SC, 240 g ai/L); and bensulfuron-methyl (as LONDAX® 10% WAY WP) were used.
The treated and control plots were rated at 28 days after application. Ratings were based on percent (%) visual weed control, where 0 corresponds to no control and 100 corresponds to complete control.

Row | SMILES | Percent (%) Visual Injury Ratings - 31 DAA, ORYSP ([1]; 280 g ae/ha in-water) [%] | Percent (%) Visual Injury Ratings - 31 DAA, ORYSP ([1]; 560 g ae/ha in-water) [%] | Percent (%) Visual Injury Ratings - 31 DAA, ORYSP ([1]; 1120 g ae/ha in-water) [%] | Percent (%) Visual Injury Ratings - 20 DAA, ECHCG ([2]; 280 g ae/ha in-water) [%] | Percent (%) Visual Injury Ratings - 20 DAA, ECHCG ([2]; 560 g ae/ha in-water) [%] | Percent (%) Visual Injury Ratings - 20 DAA, ECHCG ([2]; 1120 g ae/ha in-water) [%] | Percent (%) Visual Injury Ratings - 28 DAA, ORYSP ([3]; 140 g ae/ha in-water 10 DAT) [%] | Percent (%) Visual Injury Ratings - 28 DAA, ORYSP ([3]; 280 g ae/ha in-water 10 DAT) [%] | Percent (%) Visual Injury Ratings - 28 DAA, ORYSP ([3]; 560 g ae/ha in-water 10 DAT) [%]
1 | O=C(O)COc1ccc(Cl)cc1Cl [2,4-D DMA (Weedar ® 64), dimethylammonium 2-(2,4-dichlorophenoxy)acetate] | 0 | 3 | 4 | 0 | 20 | 80 | 0 | 0 | 0
2 | CCCCCCC(C)OC(=O)COc1nc(F)c(Cl)c(N)c1Cl (stereo not drawn) [Fluroxypyr-meptyl (Starane ® Ultra), 1-methylheptyl 2-[(4-amino-3,5-dichloro-6-fluoro-2-pyridinyl)oxy]acetate] | 5 | 28 | 73 | 0 | 25 | 99 | 0 | 0 | 0
3 | O=C(O)COc1nc(Cl)c(Cl)cc1Cl [Triclopyr triethanolamine (Garlon ® 3A), triethylammonium 2[(3,5,6-trichloro-2-pyridinyl)oxy]acetate] | 1 | 5 | 70 | 40 | 70 | 85 | 0 | 0 | 0
